From patent US9718804B2, “GSK-3 inhibitors” (BRISTOL-MYERS SQUIBB COMPANY, priority 2013, dated 2017)
Where two headings read alike, the source gives them in different places.

Experiments:
GSK3α = GSK3α (Homo sapiens, UniProt P49840); assay: GSK3α kinase assay (Caliper LabChip, fluoresceinated peptide substrate); format: biochemical
In short: (§1)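 Kinase reactions ran at room temperature for 20 hours, then were stopped with EDTA. Phosphorylated product and unphosphorylated substrate were separated electrophoretically on a LabChip3000, and IC50s came from non-linear regression over eleven compound concentrations.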

pTau = pTau assay (no method described); format: cell-based
GSK3β = GSK3β (Homo sapiens, UniProt P49841); assay: GSK3β kinase assay (Caliper LabChip, fluoresceinated peptide substrate); format: biochemical
In short: as §1

[1] = first value of the cell, 250 pM enzyme, 20 uM ATP, 20 hours at room temperature, read-out: GSK3β/α (nM): GSK3β IC50

Sequence of GSK3α (P49840 whole entry, species assumed): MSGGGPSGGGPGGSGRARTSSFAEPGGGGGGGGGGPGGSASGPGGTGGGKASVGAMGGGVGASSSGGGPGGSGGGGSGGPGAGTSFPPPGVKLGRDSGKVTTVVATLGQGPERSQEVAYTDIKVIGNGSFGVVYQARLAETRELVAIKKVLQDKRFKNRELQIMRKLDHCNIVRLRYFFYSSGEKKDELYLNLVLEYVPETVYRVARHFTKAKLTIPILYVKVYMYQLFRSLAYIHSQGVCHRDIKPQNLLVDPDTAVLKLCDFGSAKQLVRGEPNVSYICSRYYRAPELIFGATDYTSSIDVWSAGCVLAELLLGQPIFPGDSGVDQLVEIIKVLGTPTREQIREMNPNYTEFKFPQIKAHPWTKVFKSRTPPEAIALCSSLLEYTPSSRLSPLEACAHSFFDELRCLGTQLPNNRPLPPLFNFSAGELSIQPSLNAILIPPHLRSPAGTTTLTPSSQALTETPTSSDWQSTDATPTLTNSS
Sequence of GSK3β (P49841 whole entry, species assumed): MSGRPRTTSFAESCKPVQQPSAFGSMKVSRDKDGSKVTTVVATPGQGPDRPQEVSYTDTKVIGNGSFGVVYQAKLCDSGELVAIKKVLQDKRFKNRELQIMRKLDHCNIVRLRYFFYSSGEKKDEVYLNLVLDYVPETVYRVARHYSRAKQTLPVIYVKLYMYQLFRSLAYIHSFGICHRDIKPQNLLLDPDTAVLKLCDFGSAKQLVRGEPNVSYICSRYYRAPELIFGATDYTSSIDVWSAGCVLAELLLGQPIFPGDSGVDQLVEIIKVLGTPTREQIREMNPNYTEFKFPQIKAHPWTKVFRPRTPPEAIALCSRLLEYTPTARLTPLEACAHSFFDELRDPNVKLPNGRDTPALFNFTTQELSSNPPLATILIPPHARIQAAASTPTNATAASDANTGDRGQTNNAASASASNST

CCc1cccc(Nc2cc(C(=O)Nc3cncc(-c4ccccc4F)c3)ccn2)n1 [Example 138, N-(5-(2-Fluorophenyl)pyridin-3-yl)-2-((6-ethylpyridin-2-yl)amino)isonicotinamide]
IC50 (GSK3α): 2.2 nM
IC50 (pTau): 4700 nM
IC50 (GSK3β; [1]): 3.5 nM

CC(C)CS(=O)(=O)c1ccncc1NC(=O)c1ccnc(Nc2ccc(C(F)(F)F)cn2)c1 [Example 185, N-(4-(Isobutylsulfonyl)pyridin-3-yl)-2-((5-(trifluoromethyl)pyridin-2-yl)amino)isonicotinamide]
IC50 (GSK3α; second value of the cell, 250 pM enzyme, 20 uM ATP, 20 hours at room temperature, read-out: GSK3β/α (nM): GSK3α IC50): 4.8 nM
IC50 (pTau): 49 nM
IC50 (GSK3β): 0.51 nM

CC(C)C(O)(c1cc(Cl)ncc1NC(=O)c1ccnc(Nc2ccc(C(F)(F)F)cn2)c1)C1CC1 (stereo not drawn) [Example 102, N-(6-Chloro-4-(1-cyclopropyl-1-hydroxy-2-methylpropyl)pyridin-3-yl)-2-((5-(trifluoromethyl)pyridin-2-yl)amino)isonicotinamide]
IC50 (GSK3α): 30 nM
IC50 (pTau): 1200 nM
IC50 (GSK3β; [1]): 43 nM

O=C(Nc1cncnc1-c1ccccc1)c1ccnc(Nc2ccc(C(F)(F)F)cn2)c1 [Example 193, N-(4-Phenylpyrimidin-5-yl)-2-((5-(trifluoromethyl)pyridin-2-yl)amino)isonicotinamide]
IC50 (GSK3α): 1.9 nM
IC50 (pTau): 165 nM
IC50 (GSK3β; [1]): 3.6 nM

O=C(Nc1cncc(-c2cc(F)ccc2F)c1)c1ccnc(Nc2cccc(C(F)(F)F)n2)c1 [Example 146, N-(5-(2,5-Difluorophenyl)pyridin-3-yl)-2-((6-(trifluoromethyl)pyridin-2-yl)amino)isonicotinamide]
IC50 (GSK3α): 3.2 nM
IC50 (pTau): 1400 nM
IC50 (GSK3β; [1]): 5.1 nM

CC(C)C1(c2cc(Cl)ncc2NC(=O)c2ccnc(Nc3ccc(C(F)(F)F)cn3)c2)OCCO1 [Example 83, N-(6-Chloro-4-(2-isopropyl-1,3-dioxolan-2-yl)pyridin-3-yl)-2-((5-(trifluoromethyl)pyridin-2-yl)amino)isonicotinamide]
IC50 (GSK3α): 0.55 nM
IC50 (pTau): 57 nM
IC50 (GSK3β; [1]): 1.1 nM

N#CC1(c2ccc(Nc3cc(C(=O)Nc4cnccc4-c4ccccc4)ccn3)nc2)CC1 [Example 62, 2-((5-(1-Cyanocyclopropyl)pyridin-2-yl)amino)-N-(4-phenylpyridin-3-yl)isonicotinamide]
IC50 (GSK3α): 0.29 nM
IC50 (pTau): 37 nM
IC50 (GSK3β; [1]): 0.62 nM

O=C(Nc1cncc(-c2ccccc2F)c1)c1ccnc(Nc2ccc(F)cn2)c1 [Example 131, N-(5-(2-Fluorophenyl)pyridin-3-yl)-2-((5-fluoropyridin-2-yl)amino)isonicotinamide]
IC50 (GSK3α): 3 nM
IC50 (pTau): 640 nM
IC50 (GSK3β): 6.1 nM

CC(O)(c1cnncc1NC(=O)c1ccnc(Nc2ccc(C(F)(F)F)cn2)c1)C1CC1 (stereo not drawn) [Example 203, N-(5-(1-Cyclopropyl-1-hydroxyethyl)pyridazin-4-yl)-2-((5-(trifluoromethyl)pyridin-2-yl)amino)isonicotinamide]
IC50 (GSK3α): 0.94 nM
IC50 (pTau): 10000 nM
IC50 (GSK3β; [1]): 1.2 nM

O=C(Nc1cncc(-c2ccccc2Cl)c1)c1ccnc(Nc2cccc(C(F)(F)F)n2)c1 [Example 145, N-(5-(2-Chlorophenyl)pyridin-3-yl)-2-((6-(trifluoromethyl)pyridin-2-yl)amino)isonicotinamide]
IC50 (GSK3α): 4.4 nM
IC50 (pTau): 730 nM
IC50 (GSK3β; [1]): 6.4 nM

O=C(Nc1cnncc1Br)c1ccnc(Nc2ccc(C(F)(F)F)cn2)c1 [Example 197, N-(5-Bromopyridazin-4-yl)-2-((5-(trifluoromethyl)pyridin-2-yl)amino)isonicotinamide]
IC50 (GSK3α): 22 nM
IC50 (pTau): 3500 nM
IC50 (GSK3β; [1]): 70 nM

O=C(Nc1cncc(OCC2CC2)c1)c1ccnc(Nc2cccc(C(F)(F)F)n2)c1 [Example 124, N-(5-(Cyclopropylmethoxy)pyridin-3-yl)-2-((6-(trifluoromethyl)pyridin-2-yl)amino)isonicotinamide]
IC50 (GSK3α): 3.5 nM
IC50 (pTau): 3600 nM
IC50 (GSK3β; [1]): 9.4 nM

CCC1(c2cc(Cl)ncc2NC(=O)c2ccnc(Nc3ccc(C(F)(F)F)cn3)c2)OCCO1 [Example 79, N-(6-Chloro-4-(2-ethyl-1,3-dioxolan-2-yl)pyridin-3-yl)-2-((5-(trifluoromethyl)pyridin-2-yl)amino)isonicotinamide]
IC50 (GSK3α): 0.17 nM
IC50 (pTau): 33 nM
IC50 (GSK3β; [1]): 0.31 nM

CC(O)c1c(NC(=O)c2ccnc(Nc3ccc(C(F)(F)F)cn3)c2)cnn1C (stereo not drawn) [Example 208, N-(5-(1-Hydroxyethyl)-1-methyl-1H-pyrazol-4-yl)-2-((5-(trifluoromethyl)pyridin-2-yl)amino)isonicotinamide]
IC50 (GSK3α): 3.6 nM
IC50 (pTau): 120 nM
IC50 (GSK3β; [1]): 3 nM
